From patent publication US20260151372A1, “AZOTOMYCIN PRODRUGS WITH PREFERENTIAL TUMOR DELIVERY” (The Johns Hopkins University, priority 2022, published 2026) come the findings set out here.

Each structure is given as a SMILES string.

Common to all, as to assay type: in vitro ADME
The nature of data set [1]: Metabolic stability in human liver microsomes. The note with it: 1 μM prodrug, 0.2 mg/mL protein. The protocol:
(§1) In vitro stability studies were done using CES1KO mouse plasma, human plasma, CES1-KO mouse liver, and human liver microsomes as previously described. For tissue homogenate stability studies, washed tissue was diluted 10-fold in 0.1 M potassium phosphate buffer and homogenized using probe sonication. Crude homogenate was then aliquoted to 1 mL, and spiked with 10 mM stock of the analyte in DMSO to achieve a 10 μM final concentration. The plasma stability of the prodrugs was determined by spiking the analyte in 1 mL of plasma. The plasma and tissues were incubated in an orbital shaker at 37° C. Stability in human liver microsomes was assessed at a final prodrug concentration of 1 μM with 0.2 mg/mL protein for microsomes. All the stability studies were conducted at predetermined times (0 and 60 min), where 50 μL aliquots of the mixture in triplicate were removed and the reaction was quenched by addition of 5 times the volume of ice-cold methanol spiked with the internal standard (losartan: 0.5 μM). The samples were vortex-mixed for 30 s and centrifuged at 10,000 g for 10 min at 4° C. An amount of 50 μL of the supernatant was diluted with 50 μL of water and transferred to a 250 μL polypropylene vial sealed with a Teflon cap. Prodrug disappearance was monitored over time using liquid chromatography and mass spectrometry (LC-MS).
(§2) Analyses were performed on a Dionex ultra high-performance LC system coupled with Q Exactive Focus orbitrap mass spectrometer (Thermo Fisher Scientific Inc., Waltham MA). Separation was achieved using Agilent Eclipse Plus column (100×2.1 mm i.d., maintained at 35° C.) packed with a 1.8 μm C18 stationary phase. The mobile phase consisted of 0.1% formic acid in water and 0.1% formic acid in acetonitrile, […] were operated at a flow rate of 0.3 mL/min for 7 min using gradient elution. The mass spectrometer controlled by Xcalibur software 4.0.27.13 (Thermo Scientific) was operated with a HESI ion source in positive ionization mode. Metabolites were identified in the full-scan mode (from m/z 50 to 1600) by comparing […] samples

The nature of data set [2]: Metabolic stability in CES1-KO mouse liver homogenate. The note with it: tissue homogenate, 10 μM, 37° C. The protocol: as §1, §2
Data set [3] can be described thus: Plasma stability in human plasma. Conditions: 37° C. As for the experimental part: as §1, §2
The nature of data set [4]: Plasma stability in CES1KO mouse plasma. Conditions: 37° C., 60 min. As for the experimental part: as §1, §2

As for `CN(C)CC(=O)N[C@@H](CCC(=O)N[C@@H](CCC(=O)C=[N+]=[N-])C(=O)N[C@@H](CCC(=O)C=[N+]=[N-])C(=O)[O-])C(=O)OC(C)(C)C.[Na+]` [Prodrug P14, Sodium (6S,11S,14S)-6-(tert-butoxycarbonyl)-11,14-bis(4-diazo-3-oxobutyl)-2-methyl-4,9,12-trioxo-2,5,10,13-tetraazapentadecan-15-oate], the “Liver Stability (% Remaining at 60 min) Human Liver Microsomes” value in data set [1] is on record as 103 ± 2.31%. For the same molecule, the “Liver Stability (% Remaining at 60 min) CES1^−/− Mouse Liver” value in data set [2] turned out to be 82.4 ± 4.03%. For the same molecule, in data set [3], the “Plasma Stability (% Remaining at 60 min) Human Plasma” value came out at 96.2 ± 3.21%. Besides, in data set [4], the “Plasma Stability (% Remaining at 60 min) CES1^−/− Mouse Plasma” value worked out at 111 ± 4.09%.
In the case of `CN(C)CC(=O)N[C@@H](CCC(=O)N[C@@H](CCC(=O)C=[N+]=[N-])C(=O)N[C@@H](CCC(=O)C=[N+]=[N-])C(=O)[O-])C(=O)[O-].[Na+].[Na+]` [Prodrug P12, Sodium (6S,11S,14S)-6-carboxylato-11,14-bis(4-diazo-3-oxobutyl)-2-methyl-4,9,12-trioxo-2,5,10,13-tetraazapentadecan-15-oate], in data set [1], the “Liver Stability (% Remaining at 60 min) Human Liver Microsomes” value is given as 99.6 ± 3.50%. The “Liver Stability (% Remaining at 60 min) CES1^−/− Mouse Liver” value in data set [2] was determined as 111 ± 9.27%. Also, the “Plasma Stability (% Remaining at 60 min) Human Plasma” value in data set [3] was 76.2 ± 7.25%. Moreover, the “Plasma Stability (% Remaining at 60 min) CES1^−/− Mouse Plasma” value in data set [4] stood at 95.6 ± 0.44%.
Regarding `CC(C)OC(=O)[C@H](CCC(=O)N[C@@H](CCC(=O)C=[N+]=[N-])C(=O)N[C@@H](CCC(=O)C=[N+]=[N-])C(=O)OC(C)C)NC(=O)CNC(=O)CN(C)C` [Prodrug P17, Isopropyl (9S,14S,17S)-14,17-bis(4-diazo-3-oxobutyl)-9-(isopropoxycarbonyl)-2-methyl-4,7,12,15-tetraoxo-2,5,8,13,16-pentaazaoctadecan-18-oate], the “Liver Stability (% Remaining at 60 min) Human Liver Microsomes” value in data set [1] amounted to 98.0 ± 5.36%. For the same molecule, the “Liver Stability (% Remaining at 60 min) CES1^−/− Mouse Liver” value in data set [2] is listed as 0.964 ± 0.031%. In addition, the “Plasma Stability (% Remaining at 60 min) Human Plasma” value in data set [3] is given as 93.7 ± 4.92%. Further, the “Plasma Stability (% Remaining at 60 min) CES1^−/− Mouse Plasma” value in data set [4] came to 94.0 ± 2.47%.
For the molecule `CN(C)CC(=O)N[C@@H](Cc1c[nH]c2ccccc12)C(=O)N[C@@H](CCC(=O)N[C@@H](CCC(=O)C=[N+]=[N-])C(=O)N[C@@H](CCC(=O)C=[N+]=[N-])C(N)=O)C(N)=O` [Prodrug P8, (S)—N1-((S)-1-(((S)-1-Amino-6-diazo-1,5-dioxohexan-2-yl)amino)-6-diazo-1,5-dioxohexan-2-yl)-4-((S)-2-(2-(dimethylamino)acetamido)-3-(1H-indol-3-yl)propanamido)pentanediamide], the “Liver Stability (% Remaining at 60 min) Human Liver Microsomes” value in data set [1] amounted to 95.8 ± 0.141%. Also, in data set [2], the “Liver Stability (% Remaining at 60 min) CES1^−/− Mouse Liver” value is listed as 49.7 ± 0.333%. Moreover, the “Plasma Stability (% Remaining at 60 min) Human Plasma” value in data set [3] is given as 109 ± 1.00%. The “Plasma Stability (% Remaining at 60 min) CES1^−/− Mouse Plasma” value in data set [4] was found to be 99.3 ± 1.45%.
For `CC(C)OC(=O)[C@H](CCC(=O)C=[N+]=[N-])NC(=O)[C@H](CCC(=O)C=[N+]=[N-])NC(=O)CC[C@H](NC(=O)[C@H](CCCNC(N)=O)NC(=O)[C@@H](N)C(C)C)C(=O)OC(C)C` [Prodrug P18, Isopropyl (6S,9S,14S,17S)-1-amino-6-((S)-2-amino-3-methylbutanamido)-14,17-bis(4-diazo-3-oxobutyl)-9-(isopropoxycarbonyl)-1,7,12,15-tetraoxo-2,8,13,16-tetraazaoctadecan-18-oate], the “Liver Stability (% Remaining at 60 min) Human Liver Microsomes” value in data set [1] is reported as 84.9 ± 2.30%. In data set [2], the “Liver Stability (% Remaining at 60 min) CES1^−/− Mouse Liver” value was determined as 0.11 ± 0.03%. Further, in data set [3], the “Plasma Stability (% Remaining at 60 min) Human Plasma” value worked out at 105 ± 4.81%. Besides, in data set [4], the “Plasma Stability (% Remaining at 60 min) CES1^−/− Mouse Plasma” value was found to be 105 ± 5%.
